From US20130109580A1, “High-Affinity Peptide Probes for Tumor Biomarker, GRP-78, and Screening Method Thereof” (ATOMIC ENERGY CONCIL-INSTITUTE OF NUCLEAR ENERGY RESEARCH, priority 2011, published 2013)

Columns and labels:
GRP-78 [1] = target: T1, GRP-78 (Homo sapiens, UniProt P11021); assay: ELISA analysis of phage affinity to GRP-78; format: binding; conditions: Maxisorb 96-well plate coated with GRP-78; CPS minus background without GRP-78; serially diluted phages
Method: (g) In the end, enzyme-linked immunosorbent assay (ELISA) analysis is processed with the phages 11 to obtain high-affinity amino acid sequences of peptides.
In FIG. 2, after three times of the panning process, luminescent antibodies 12 (HRP-conjugated M13-phage g8p monoclone antibody) against the phages 11 are added to be washed with the TBST buffer having 0.5% Tween-20. At last, an enhanced chemiluminescence (ECL) substrate is added for developing.
Please further refer to FIG. 4 and FIG. 5, which are a view showing a calculating process and a result of an ELISA analysis. As shown in the figures, the four sequences selected from the five sequences are numbered as phage#01, phage#03, phage#13 and phage#15 for comparing their affinities to GRP-78. An ELISA analysis is processed after values of densities of the phages are deducted by background values at the same densities. In FIG. 3, Maxisorb 96-well plate is used. Row 11 and row 12 are not used. A1˜A10, C1˜C10, E1˜E10 and G1˜G10 are coated with GRP-78. 80 wells of A1˜A10, B1˜B10, C1˜C10, D1˜D10, E1˜E10, F1˜F10, G1˜G10, H1˜H10 and […] along with 40 clean wells are all blocked. On diluting the phages, the plate containing the 80 blocked wells along with the 40 blocked clean wells is used. The first to the tenth wells in each row contain phages sequentially diluted. […] A number of counts per second (CPS) is obtained by using an ELISA reader. […]

GRP-78 [2] = target: T1, GRP-78; assay: Phage display panning against GRP-78 with DNA sequencing of picked phages; format: binding; conditions: 24 independent phages picked after panning
Excerpt: (a) A desired target protein 10 is fixed at bottom of a container added with selected phages 11 from phage display library.
(b) Each phage 11 is bound to the target protein 10 by using amino acid sequences contained in the phage 11.
(c) A TBST buffer having 0.1% Tween-20 is obtained for processing washing. By using Tween-20 as a surfactant, unspecific bindings are destroyed.
(d) The phages 11 which are bound to the target protein 10 are eluted under a weak acid status to be collected.
(e) after amplifying the collected phages 11 bound to the target protein 10, a panning process of binding, washing and eluting as in step (b) to step (d) is run for two times. For better screening efficiency, a density of Tween-20 is increased after each time of the panning process. It is because that the unspecific bindings are not destroyed with a too low density of Tween-20; yet a too high density of Tween-20 not only destroys the specific bindings between the phages 11 and the target protein 10 but also destroys integrities of proteins in the phages 11.
(f) Then, a quantification process is run with the screened phages 11 for estimating screening efficiency. DNA sequencing is then processed with the phages 11 to obtain actual sequences of 7 amino acids deposed on g3 protein (g3p). […]

T1 sequence (P11021 19-654, species assumed): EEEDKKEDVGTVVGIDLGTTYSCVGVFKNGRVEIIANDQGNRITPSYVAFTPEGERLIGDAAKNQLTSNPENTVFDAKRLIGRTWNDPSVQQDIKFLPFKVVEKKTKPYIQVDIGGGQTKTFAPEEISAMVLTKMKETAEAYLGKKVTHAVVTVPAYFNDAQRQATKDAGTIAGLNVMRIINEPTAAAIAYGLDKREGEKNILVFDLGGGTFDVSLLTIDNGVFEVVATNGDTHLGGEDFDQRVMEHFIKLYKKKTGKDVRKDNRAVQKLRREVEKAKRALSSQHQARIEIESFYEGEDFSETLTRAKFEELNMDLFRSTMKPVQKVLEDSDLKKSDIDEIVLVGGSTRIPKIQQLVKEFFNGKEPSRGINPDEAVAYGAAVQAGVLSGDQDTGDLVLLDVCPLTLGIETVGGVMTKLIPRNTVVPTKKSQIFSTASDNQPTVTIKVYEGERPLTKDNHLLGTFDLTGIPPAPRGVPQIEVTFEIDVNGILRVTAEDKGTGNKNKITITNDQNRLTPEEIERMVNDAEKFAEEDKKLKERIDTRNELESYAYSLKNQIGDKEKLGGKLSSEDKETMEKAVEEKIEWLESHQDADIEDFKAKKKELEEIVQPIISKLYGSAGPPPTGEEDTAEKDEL

affinity / binding force to GRP-78 (ELISA curve, pure CPS vs phage density) (GRP-78 [1])	occurrence of the sequence among picked phages (GRP-78 [2])	Substance
strong binding forces	–	KCCY
–	very few occurrences	KLWVIPQ [ruled out for later analysis]
–	very few occurrences	YSLRMDF
strong binding forces	–	KVW
